According to ChEMBL document CHEMBL5226385, “The Antiangiogenic and Antitumor Effects of Scoparasin B in Non-Small-Cell Lung Cancer” (J Nat Prod, 2023):
Activity calls are given as the source filed them. No cut-off for these calls is given here.

How the values were obtained:
HMEC-1 [1] = test: Antiangiogenic activity against human HMEC-1 cells assessed as inhibition of cell migration measured after 8 hrs by scratch wound healing assay; assay type: functional, cell-based; conditions: dose 5-15 nM
HUVEC [2] = test: Antiangiogenic activity against human HUVEC cells assessed as inhibition of cell migration measured after 24 hrs by Transwell migration assay; assay type: functional, cell-based; conditions: dose 5-15 nM
HMEC-1 [3] = test: Antiangiogenic activity against human HMEC-1 cells assessed as inhibition of cell migration measured after 24 hrs by Transwell migration assay; assay type: functional, cell-based; conditions: dose 5-15 nM
HUVEC [4] = test: Antiangiogenic activity against human HUVEC cells assessed as inhibition of cell invasion measured after 24 hrs by Transwell invasion assay; assay type: functional, cell-based; conditions: dose 5-15 nM
HUVEC [5] = test: Antiangiogenic activity against human HUVEC cells assessed as inhibition of capillary tube-like structure formation at 15 nM incubated for 6 hrs by Matrigel based analysis; assay type: functional; parameters: scale not given: the % may be the effect or the level left
HMEC-1 [6] = test: Antiangiogenic activity against human HMEC-1 cells assessed as inhibition of capillary tube-like structure formation at 15 nM incubated for 6 hrs by Matrigel based analysis; assay type: functional; parameters: scale not given: the % may be the effect or the level left
Rattus norvegicus = species on record: Rattus norvegicus; test: Ex vivo antiangiogenic activity against Sprague-Dawley rat aorta rings assessed as reduction in microvessel sprouting from aortic rings by measuring reduction in segment formation measured after 6 days by microscopic analysis; assay type: functional; conditions: dose 5-20 nM, time 6.0 day
Gallus gallus = species on record: Gallus gallus; test: Ex vivo antiangiogenesis activity in chicken embryo chorioallantonic membrane assessed as reduction in microvessel density at 5 to 20 nM measured after 48 hrs by stereomicroscopic analysis; assay type: functional, organism-based; conditions: Chorioallantoic membrane, dose 5-20 nM
HUVEC [7] = test: Downregulation of VEGF-A protein expression in human HUVEC cells at 5 to 15 nM incubated for 36 hrs by western blot analysis; assay type: functional, cell-based; conditions: dose 5-15 nM
HMEC-1 [8] = test: Downregulation of VEGF-A protein expression in human HMEC-1 cells at 5 to 15 nM incubated for 36 hrs by western blot analysis; assay type: functional, cell-based; conditions: dose 5-15 nM
[9] = biological target: Vascular endothelial growth factor receptor 2 (Homo sapiens) (UniProt P35968); test: Inhibition of VEGF-A-mediated VEGFR2 signaling pathway in human HMEC-1 cells assessed as reduction in VEGFR2 phosphorylation at Tyr1175 residue at 5 to 15 nM incubated for 36 hrs by western blot analysis; assay type: cell-based; conditions: dose 5-15 nM
Sequence of Vascular endothelial growth factor receptor 2 (Homo sapiens) (P35968 whole entry): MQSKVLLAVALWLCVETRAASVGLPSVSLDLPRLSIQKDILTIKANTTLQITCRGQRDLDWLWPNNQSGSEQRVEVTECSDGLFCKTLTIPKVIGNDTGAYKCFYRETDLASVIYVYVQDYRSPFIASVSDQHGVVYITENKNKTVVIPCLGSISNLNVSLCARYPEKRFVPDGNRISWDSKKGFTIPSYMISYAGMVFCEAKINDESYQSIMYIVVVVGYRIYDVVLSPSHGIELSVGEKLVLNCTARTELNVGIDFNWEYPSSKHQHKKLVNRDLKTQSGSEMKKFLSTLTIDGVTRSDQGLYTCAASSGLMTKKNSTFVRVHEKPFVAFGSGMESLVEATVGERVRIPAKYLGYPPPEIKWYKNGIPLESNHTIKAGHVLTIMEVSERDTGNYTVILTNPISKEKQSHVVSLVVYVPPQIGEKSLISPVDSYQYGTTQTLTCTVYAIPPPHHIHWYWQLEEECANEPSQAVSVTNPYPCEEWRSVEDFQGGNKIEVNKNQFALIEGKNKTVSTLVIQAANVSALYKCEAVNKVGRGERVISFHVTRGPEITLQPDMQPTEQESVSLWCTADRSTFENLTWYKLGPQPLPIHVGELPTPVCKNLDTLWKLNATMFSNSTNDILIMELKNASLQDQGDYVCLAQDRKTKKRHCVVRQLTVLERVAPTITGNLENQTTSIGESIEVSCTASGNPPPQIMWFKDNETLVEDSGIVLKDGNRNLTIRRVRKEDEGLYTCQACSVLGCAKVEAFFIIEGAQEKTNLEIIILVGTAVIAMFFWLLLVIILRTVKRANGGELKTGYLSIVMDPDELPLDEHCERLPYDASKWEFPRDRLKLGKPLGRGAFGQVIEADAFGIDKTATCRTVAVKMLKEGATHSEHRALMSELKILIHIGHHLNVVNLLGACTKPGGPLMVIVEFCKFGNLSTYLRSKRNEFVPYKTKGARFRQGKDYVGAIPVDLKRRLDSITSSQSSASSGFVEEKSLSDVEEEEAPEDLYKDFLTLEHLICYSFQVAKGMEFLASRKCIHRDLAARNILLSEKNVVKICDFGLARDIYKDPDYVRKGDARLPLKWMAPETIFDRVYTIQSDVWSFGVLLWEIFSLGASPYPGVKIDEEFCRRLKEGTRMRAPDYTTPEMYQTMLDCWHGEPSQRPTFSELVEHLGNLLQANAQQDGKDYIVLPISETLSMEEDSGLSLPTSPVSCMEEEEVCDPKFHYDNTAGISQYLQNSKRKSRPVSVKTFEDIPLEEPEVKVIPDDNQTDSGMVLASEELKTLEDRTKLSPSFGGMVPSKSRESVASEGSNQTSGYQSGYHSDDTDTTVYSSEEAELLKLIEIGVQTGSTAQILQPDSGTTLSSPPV

HUVEC [10] = test: Inhibition of VEGF-A secretion in human HUVEC cells incubated for 36 hrs by ELISA; assay type: functional, cell-based; conditions: dose 5-15 nM
[11] = biological target: Vascular endothelial growth factor receptor 2 (Homo sapiens) (UniProt P35968); test: Inhibition of VEGF-A-mediated VEGFR2 signaling pathway in human HUVEC cells assessed as reduction in Akt phosphorylation at Thr308 residue at 5 to 15 nM incubated for 36 hrs by western blot analysis; assay type: cell-based; conditions: dose 5-15 nM
[12] = biological target: Vascular endothelial growth factor receptor 2 (Homo sapiens) (UniProt P35968); test: Inhibition of VEGF-A-mediated VEGFR2 signaling pathway in human HMEC-1 cells assessed as reduction in mTOR phosphorylation at Ser2448 residue at 5 to 15 nM incubated for 36 hrs by western blot analysis; assay type: cell-based; conditions: dose 5-15 nM
[13] = biological target: Vascular endothelial growth factor receptor 2 (Homo sapiens) (UniProt P35968); test: Inhibition of VEGF-A-mediated VEGFR2 signaling pathway in human HMEC-1 cells assessed as reduction in Akt phosphorylation at Thr308 residue at 5 to 15 nM incubated for 36 hrs by western blot analysis; assay type: cell-based; conditions: dose 5-15 nM
HUVEC [14] = test: Inhibition of pericyte-mediated angiogenesis in PKH26-labeled human HUVEC cells assessed as reduction in PKH67-labeled HBVP recruitment to newly formed capillary by endothelial cells by measuring reduction in overall vessel coverage for branch points and total tube lengths at 5 to 15 nM pericytes pretreated with compound for 48 hrs followed by incubation with endothelial cells and measured within 3 hrs by Matrigel-based fluorescence analysis; assay type: functional, cell-based; conditions: dose 5-15 nM, time 51.0 hrs
[15] = biological target: Platelet-derived growth factor receptor beta (Homo sapiens) (UniProt P09619); test: Inhibition of PDGF-BB-mediated PDGFR-beta signaling axis in human HBVP cells assessed as inhibition of PDGFR-beta phosphorylation at Tyr857 residue at 5 to 15 nM incubated for 24 hrs by western blot analysis; assay type: cell-based; conditions: dose 5-15 nM
Sequence of Platelet-derived growth factor receptor beta (Homo sapiens) (P09619 whole entry): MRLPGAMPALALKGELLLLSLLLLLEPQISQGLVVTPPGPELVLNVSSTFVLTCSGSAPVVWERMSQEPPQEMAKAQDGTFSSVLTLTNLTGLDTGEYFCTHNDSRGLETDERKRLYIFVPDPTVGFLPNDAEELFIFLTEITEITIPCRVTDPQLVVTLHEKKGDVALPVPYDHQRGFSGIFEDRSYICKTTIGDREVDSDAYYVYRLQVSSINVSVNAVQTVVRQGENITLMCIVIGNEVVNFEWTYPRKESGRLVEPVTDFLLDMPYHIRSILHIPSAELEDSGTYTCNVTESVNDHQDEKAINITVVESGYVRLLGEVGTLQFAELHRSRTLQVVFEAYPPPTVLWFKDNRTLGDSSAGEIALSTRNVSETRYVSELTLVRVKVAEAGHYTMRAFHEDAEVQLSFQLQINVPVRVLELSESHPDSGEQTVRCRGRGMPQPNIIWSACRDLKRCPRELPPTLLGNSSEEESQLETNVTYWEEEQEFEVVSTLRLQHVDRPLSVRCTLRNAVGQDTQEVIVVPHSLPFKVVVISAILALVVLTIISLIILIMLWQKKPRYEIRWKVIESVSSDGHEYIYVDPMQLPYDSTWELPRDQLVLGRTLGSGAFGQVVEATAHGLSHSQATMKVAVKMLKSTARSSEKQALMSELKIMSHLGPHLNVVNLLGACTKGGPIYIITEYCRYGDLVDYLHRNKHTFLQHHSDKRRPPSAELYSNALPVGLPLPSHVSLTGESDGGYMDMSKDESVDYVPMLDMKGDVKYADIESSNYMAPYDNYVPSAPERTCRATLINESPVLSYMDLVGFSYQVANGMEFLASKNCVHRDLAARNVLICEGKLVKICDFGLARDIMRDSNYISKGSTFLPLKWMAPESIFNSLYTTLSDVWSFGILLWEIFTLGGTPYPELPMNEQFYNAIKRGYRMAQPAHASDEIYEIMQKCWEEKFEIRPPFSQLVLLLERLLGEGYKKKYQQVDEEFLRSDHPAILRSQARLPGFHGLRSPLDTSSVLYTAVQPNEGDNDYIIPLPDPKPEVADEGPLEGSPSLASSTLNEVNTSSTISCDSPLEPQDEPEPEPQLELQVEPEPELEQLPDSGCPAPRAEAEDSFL

HBVP [16] = test: Inhibition of PDGFR-beta protein expression in human HBVP cells at 5 to 15 nM incubated for 24 hrs by western blot analysis; assay type: functional, cell-based; conditions: dose 5-15 nM
HBVP [17] = test: Inhibition of PDGF-BB mRNA expression in human HBVP cells at 5 to 15 nM incubated for 24 hrs by qPCR analysis; assay type: functional, cell-based; conditions: dose 5-15 nM
NCI-H1299 [18] = test: Inhibition of vasculogenic-mimicry in human NCI-H1299 cells assessed as inhibition of capillary-like network formation by measuring reduction in tube number and vascular branches at 5 to 15 nM measured after 6 hrs by Matrigel-based analysis; assay type: functional, cell-based; conditions: dose 5-15 nM
NCI-H1299 [19] = test: Inhibition of vasculogenic-mimicry in human NCI-H1299 cells assessed as inhibition of cell migration at 5 to 15 nM measured after 24 hrs by Transwell migration assay; assay type: functional, cell-based; conditions: dose 5-15 nM
NCI-H1299 [20] = test: Downregulation of VE-Cadherin protein expression in human NCI-H1299 cells at 5 to 15 nM incubated for 24 hrs by western blot analysis; assay type: functional, cell-based; conditions: dose 5-15 nM
NCI-H1299 [21] = test: Downregulation of Vimentin protein expression in human NCI-H1299 cells at 5 to 15 nM incubated for 24 hrs by western blot analysis; assay type: functional, cell-based; conditions: dose 5-15 nM
NCI-H1299 [22] = test: Downregulation of Snail protein expression in human NCI-H1299 cells at 5 to 15 nM incubated for 24 hrs by western blot analysis; assay type: functional, cell-based; conditions: dose 5-15 nM
NCI-H1299 [23] = test: Downregulation of VE-Cadherin mRNA expression in human NCI-H1299 cells at 5 to 15 nM incubated for 24 hrs by qPCR analysis; assay type: functional, cell-based; conditions: dose 5-15 nM
NCI-H1299 [24] = test: Downregulation of N-Cadherin mRNA expression in human NCI-H1299 cells at 5 to 15 nM incubated for 24 hrs by qPCR analysis; assay type: functional, cell-based; conditions: dose 5-15 nM
NCI-H1299 [25] = test: Downregulation of MMP9 mRNA expression in human NCI-H1299 cells at 5 to 15 nM incubated for 24 hrs by qPCR analysis; assay type: functional, cell-based; conditions: dose 5-15 nM
NCI-H1299 [26] = test: Inhibition of VEGF-A secretion in human NCI-H1299 cells at 5 to 15 nM incubated for 24 hrs by ELISA; assay type: functional, cell-based; conditions: dose 5-15 nM
[27] = Toxicity against BALB/c nude mouse xenografted with human NCI-H1299 cells assessed as change in body weight at 0.75 to 1.5 mg/kg, ip administered every other day for 20 days; assay type: organism-based; conditions: in vivo, 480 h, dose 0.75-1.5 mg/kg, time 20 day
[28] = Toxicity against BALB/c nude mouse xenografted with human NCI-H1299 cells assessed as morphological changes in liver at 0.75 to 1.5 mg/kg, ip administered every other day for 20 days by Hematoxylin and eosin staining based inverted microscopic analysis; assay type: organism-based; conditions: in vivo, 480 h, dose 0.75-1.5 mg/kg, time 20 day
[29] = Toxicity against BALB/c nude mouse xenografted with human NCI-H1299 cells assessed as morphological changes in kidneys at 0.75 to 1.5 mg/kg, ip administered every other day for 20 days by Hematoxylin and eosin staining based inverted microscopic analysis; assay type: organism-based; conditions: in vivo, 480 h, dose 0.75-1.5 mg/kg, time 20 day
NCI-H1299 [30] = test: Antitumor activity against human NCI-H1299 cells xenografted in BALB/c nude mouse assessed as reduction in Ki67 expression in tumor at 0.75 to 1.5 mg/kg, ip administered every other day for 20 days by immunohistochemical analysis; assay type: functional, organism-based; conditions: dose 0.75-1.5 mg/kg, time 20.0 day
Mus musculus = test: Inhibition of tumor angiogenesis in BALB/c nude mouse xenografted with human NCI-H1299 cells assessed as reduction in microvessel density of the tumor at 0.75 to 1.5 mg/kg, ip administered every other day for 20 days by CD31 staining based immunohistochemical analysis; assay type: functional, organism-based; conditions: dose 0.75-1.5 mg/kg, time 20.0 day

## COc1ccc(C[C@@H]2NC(=O)[C@@]34OC(=O)O/C=C/[C@@](C)(O)C(=O)[C@@H](C)C/C=C/[C@H]3[C@H](O)[C@](C)(O)[C@@H](C)[C@@H]24)cc1 [SCOPARASIN B]
HMEC-1 [1]
  Activity: Dose-Dependent Effect
HUVEC [2]
  Activity: Dose-Dependent Effect
HMEC-1 [3]
  Activity: Dose-Dependent Effect
HUVEC [4]
  Activity: Dose-Dependent Effect
HUVEC [5]
  Activity: 100%
HMEC-1 [6]
  Activity: 100%
Rattus norvegicus
  Activity: Dose-Dependent Effect
Gallus gallus
  Activity: Active
HUVEC [7]
  inhibition: Active
HMEC-1 [8]
  inhibition: Active
[9]
  inhibition: Active
HUVEC [10]
  inhibition: Dose-Dependent Effect
[11]
  inhibition: Active
[12]
  inhibition: Active
[13]
  inhibition: Active
HUVEC [14]
  inhibition: Active
[15]
  inhibition: Active
HBVP [16]
  inhibition: inactive
HBVP [17]
  inhibition: Active
NCI-H1299 [18]
  inhibition: Active
NCI-H1299 [19]
  inhibition: Active
NCI-H1299 [20]
  inhibition: Active
NCI-H1299 [21]
  inhibition: Active
NCI-H1299 [22]
  inhibition: Active
NCI-H1299 [23]
  inhibition: Active
NCI-H1299 [24]
  inhibition: Active
NCI-H1299 [25]
  inhibition: Active
NCI-H1299 [26]
  inhibition: Active
[27]
  Activity: Non-Toxic
[28]
  Activity: Non-Toxic
[29]
  Activity: Non-Toxic
NCI-H1299 [30]
  Activity: Active
Mus musculus
  inhibition: Active
